Reference: ChEMBL document CHEMBL1201862, “PubChem BioAssay data set” (2004)
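Assay format: 96-well plates, 48-hour exposure. GI50 = concentration required for 50% inhibition of growth.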 Activity calls are given as the source filed them. No stated cut-off is given here; in the data, active = GI50 up to about 1.1 µM and inactive = higher.

Experiments:
Assay in all cases: growth of human tumour cells (NCI), 48 h
SF-295 = tested on: SF-295
NCI-H23 = tested on: NCI-H23
K562 = tested on: K562
A498 = tested on: A498
UACC-257 = tested on: UACC-257
MOLT-4 = tested on: MOLT-4
TK-10 = tested on: TK-10
NCI-H460 = tested on: NCI-H460
DU-145 = tested on: DU-145
SN12C = tested on: SN12C
MDA-MB-231 = tested on: MDA-MB-231
NCI-H226 = tested on: NCI-H226
Hs-578T = tested on: Hs-578T
DLD-1 = tested on: DLD-1
SNB-19 = tested on: SNB-19
LOX IMVI = tested on: LOX IMVI
HCC 2998 = tested on: HCC 2998
Malme-3M = tested on: Malme-3M
OVCAR-4 = tested on: OVCAR-4
LXFL 529 = tested on: LXFL 529
DMS-114 = tested on: DMS-114
RXF 393 = tested on: RXF 393
SR = tested on: SR
HCT-15 = tested on: HCT-15
KM-20L2 = tested on: KM-20L2
COLO 205 = tested on: COLO 205
M19-MEL = tested on: M19-MEL
SW-620 = tested on: SW-620
OVCAR-3 = tested on: OVCAR-3
DMS-273 = tested on: DMS-273
SK-MEL-5 = tested on: SK-MEL-5
BT-549 = tested on: BT-549
RPMI-8226 = tested on: RPMI-8226
EKVX = tested on: EKVX
XF498 = tested on: XF498
UACC-62 = tested on: UACC-62
SK-MEL-28 = tested on: SK-MEL-28
UO-31 = tested on: UO-31
MDA-MB-435 = tested on: MDA-MB-435
NCI/ADR-RES = tested on: NCI/ADR-RES
A549 = tested on: A549
SK-MEL-2 = tested on: SK-MEL-2
SF-268 = tested on: SF-268
HOP-18 = tested on: HOP-18
ACHN = tested on: ACHN
HT-29 = tested on: HT-29
HOP-62 = tested on: HOP-62
PC-3 = tested on: PC-3
OVCAR-8 = tested on: OVCAR-8
HCT-116 = tested on: HCT-116
SF-539 = tested on: SF-539
CAKI-1 = tested on: CAKI-1
KM12 = tested on: KM12
NCI-H522 = tested on: NCI-H522
HOP-92 = tested on: HOP-92
CCRF-CEM = tested on: CCRF-CEM
IGROV-1 = tested on: IGROV-1
SNB-78 = tested on: SNB-78
SNB-75 = tested on: SNB-75
U-251 = tested on: U-251
MDA-N = tested on: MDA-N
OVCAR-5 = tested on: OVCAR-5
MCF7 = tested on: MCF7
786-0 = tested on: 786-0
M14 = tested on: M14
HL-60 = tested on: HL-60

O=C1/C(=C/c2ccc(Cl)cc2)CCC1CNc1ccc(Cl)cc1 (stereo unspecified)
GI50 (SF-295): 6.79 µM (inactive)
GI50 (NCI-H23): 10.3 µM (inactive)
GI50 (K562): 0.249 µM (active)
GI50 (A498): 14.9 µM (inactive)
GI50 (UACC-257): 13.8 µM (inactive)
GI50 (MOLT-4): 2.29 µM (inactive)
GI50 (TK-10): 5.11 µM (inactive)
GI50 (NCI-H460): 7.96 µM (inactive)
GI50 (DU-145): 13.5 µM (inactive)
GI50 (SN12C): 10.2 µM (inactive)
GI50 (MDA-MB-231): 6.7 µM (inactive)
GI50 (NCI-H226): 28.4 µM (inactive)
GI50 (Hs-578T): 16.1 µM (inactive)
GI50 (DLD-1): 1.68 µM (inactive)
GI50 (SNB-19): 14.7 µM (inactive)
GI50 (LOX IMVI): 0.673 µM (active)
GI50 (HCC 2998): 6.01 µM (inactive)
GI50 (Malme-3M): 18 µM (inactive)
GI50 (OVCAR-4): 18.9 µM (inactive)
GI50 (LXFL 529): 0.711 µM (active)
GI50 (DMS-114): 3.94 µM (inactive)
GI50 (RXF 393): 11.6 µM (inactive)
GI50 (SR): 2.23 µM (inactive)
GI50 (HCT-15): 2.37 µM
GI50 (KM-20L2): 1.46 µM (inactive)
GI50 (COLO 205): 2.46 µM (inactive)
GI50 (M19-MEL): 3.97 µM (inactive)
GI50 (SW-620): 2.03 µM (inactive)
GI50 (OVCAR-3): 7.18 µM (inactive)
GI50 (DMS-273): 1.73 µM (inactive)
GI50 (SK-MEL-5): 3.33 µM (inactive)
GI50 (BT-549): 24.3 µM (inactive)
GI50 (RPMI-8226): 0.78 µM (active)
GI50 (EKVX): 10.7 µM (inactive)
GI50 (XF498): 12.8 µM (inactive)
GI50 (UACC-62): 0.41 µM (active)
GI50 (SK-MEL-28): 15.6 µM (inactive)
GI50 (UO-31): 5.35 µM (inactive)
GI50 (MDA-MB-435): 15.1 µM (inactive)
GI50 (NCI/ADR-RES): 26.2 µM (inactive)
GI50 (A549): 7.8 µM (inactive)
GI50 (SK-MEL-2): 29.2 µM (inactive)
GI50 (SF-268): 7.4 µM (inactive)
GI50 (HOP-18): 33.9 µM (inactive)
GI50 (ACHN): 1.57 µM (inactive)
GI50 (HT-29): 3.67 µM (inactive)
GI50 (HOP-62): 19.9 µM (inactive)
GI50 (PC-3): 10.5 µM (inactive)
GI50 (OVCAR-8): 2.42 µM (inactive)
GI50 (HCT-116): 4.73 µM (inactive)
GI50 (SF-539): 7.76 µM (inactive)
GI50 (CAKI-1): 7.55 µM (inactive)
GI50 (KM12): 1.29 µM (inactive)
GI50 (NCI-H522): 1.8 µM (inactive)
GI50 (HOP-92): 19.3 µM (inactive)
GI50 (CCRF-CEM): 0.828 µM (active)
GI50 (IGROV-1): 6.12 µM (inactive)
GI50 (SNB-78): 23.7 µM (inactive)
GI50 (SNB-75): 32.3 µM (inactive)
GI50 (U-251): 9.71 µM (inactive)
GI50 (MDA-N): 11.8 µM (inactive)
GI50 (OVCAR-5): 25.2 µM (inactive)
GI50 (MCF7): 1.29 µM (inactive)
GI50 (786-0): 2.26 µM (inactive)
GI50 (M14): 2.37 µM (inactive)
GI50 (HL-60): 0.703 µM (active)
